# Where “and” joins values, the source holds several entries; their conditions need not be identical. Equal values may be shown once. Entries after “also recorded” stand apart in the source; their conditions may differ. Read-outs that look alike come from different tables or passages of the source.
# Experiments:
# [1] = target: acetylcholinesterase from Electrophorus electricus (Electrophorus electricus, UniProt O42275); experiment: biochemical; format: biochemical; settings: for IC50: triplicate, means ± SD, na = not active
# acetylcholinesterase from Electrophorus electricus, sequence (O42275 24-633): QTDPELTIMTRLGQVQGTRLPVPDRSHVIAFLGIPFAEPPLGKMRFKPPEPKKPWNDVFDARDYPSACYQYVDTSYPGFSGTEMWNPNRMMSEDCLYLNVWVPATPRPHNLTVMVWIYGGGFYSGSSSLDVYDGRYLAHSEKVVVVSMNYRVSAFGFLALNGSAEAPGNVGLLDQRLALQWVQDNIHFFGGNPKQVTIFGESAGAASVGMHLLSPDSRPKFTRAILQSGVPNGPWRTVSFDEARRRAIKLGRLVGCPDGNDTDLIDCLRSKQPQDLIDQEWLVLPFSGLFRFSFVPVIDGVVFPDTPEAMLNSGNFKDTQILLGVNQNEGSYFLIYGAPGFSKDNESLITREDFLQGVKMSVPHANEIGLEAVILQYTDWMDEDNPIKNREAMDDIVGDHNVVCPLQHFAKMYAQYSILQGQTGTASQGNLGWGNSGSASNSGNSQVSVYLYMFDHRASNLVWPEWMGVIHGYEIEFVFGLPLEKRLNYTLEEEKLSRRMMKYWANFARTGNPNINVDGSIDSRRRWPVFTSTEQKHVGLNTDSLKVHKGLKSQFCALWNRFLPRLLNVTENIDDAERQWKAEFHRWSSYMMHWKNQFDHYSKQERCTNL
# [2] = ABTS radical scavenging activity; settings: for antioxidant activity (in words): ABTS radical scavenging; for ABTS (%) radical scavenging activity: absorbance at 734 nm after 7 min, triplicate, means ± SD, BHT 1 mM in MeOH, na = not active
# Procedure: […] (ABTS), potassium persulphate, and butylhydroxy toluol (BHT) were purchased from Sigma-Aldrich. For ABTS assay, the procedure followed the method of Grochowski et al. with some modifications. The stock solutions included 7 mM ABTS solution and 2.4 mM potassium persulphate solution. The working solution was then prepared by mixing the two stock solutions in equal quantities and allowing them to react for 14 h at room temperature in the dark. […] A fresh ABTS solution was prepared for each assay. […] of each com-pound (125 μL) was allowed to react with 1850 μL of the ABTS solution, and the absorbance was taken at 734 nm after 7 min. The control contains 125 μL methanol and 1850 μL of the ABTS solution. All determinations were performed in triplicate (n = 3). The results were expressed as % ABTS activity, using the following equation: % ABTS radical scavenging activity = ((Acontrol − Asample)/Acontrol) × 100, where Acontrol is the absorbance of the control, while Asample is the absorbance of the sample. Butylhydroxytoluene (BHT) (1 mM in MeOH) was used as a positive control.
# [3] = target: NMDA receptor; settings: NMDA receptor antagonists; cited from earlier work
# [4] = parameters: method as in doi:10.1016/j.phytol.2015.03.012; settings: cited from earlier work
# [5] = test system: AChE; settings: cited from earlier work
# [6] = test system: BChE; settings: cited from earlier work
# [7] = Ellman's method, read-out: IC50
Molecule,AChE inhibitory activity (in words) ([1]; Ellman's method),"IC50 [1, 7]",ABTS (%) radical scavenging activity [2],further results
"C=CCN1C(=O)C2(NCCc3c2[nH]c2ccc(C)cc32)c2ccccc21 (centres unmarked) [Compound 29, 6′-methyl-1-(prop-2-en-1-yl)-1,2,2′,3′,4′,9′-hexahydrospiro[indole-3,1′-pyrido [3,4-b]indol]-2-one]",micro- to low millimolar range,> 5000 µM and 5700 µM,70.55% and 80.94% and 80.94 ± 0.94%,antioxidant activity (in words) [2]: high antioxidant activity
"CC1CCc2c([nH]c3ccccc23)C2(N1)C(=O)Nc1ccccc12 (centres unmarked) [Compound 28, 3-methyl-1′,2′,3,4,5,10-hexahydro-2H-spiro[azepino [3,4-b]indole-1,3′-indol]-2′-one]",micromolar range; also recorded: micro- to low millimolar range,620 ± 140 µM,80.94% and 70.55 ± 0.85%,antioxidant activity (in words) [2]: high antioxidant activity
"Cc1ccc(NC(=O)C[C@H]2NCCc3c([nH]c4ccccc34)C2=O)cc1 [Compound 21, N-(4-methylphenyl)-2-{5-oxo-1H,2H,3H,4H,5H,6H-azepino [4,5-b]indol-4-yl} acetamide]",micro- to low millimolar range,1000 to 2000 µM and 1200 µM,34.68% and 34.68 ± 1.27%,–
Ibogaine,–,–,–,Ki [3]: 1.1 µM
CC[C@H]1C[C@@H]2CN3CCc4c([nH]c5ccccc45)[C@](C(=O)OC)(C2)[C@H]13 [coronaridine],–,–,–,Ki [3]: 6.2 µM
"O=C(/C=C/c1ccccc1)N1C[C@@H]2C[C@H](C1)c1cccc(=O)n1C2 [Compound 22, (1S,9R)-11-[(2E)-3-phenylprop-2-enoyl]-7,11-diazatricyc lotrideca-2,4-dien-6-one]",micromolar range; also recorded: micro- to low millimolar range,–,–,"IC50 ([1]; IC50, Ellman's method): 390 ± 160 µM"
"CC(=O)Nc1ccc(N[C@@H]2OC(=O)c3c2c2ccccc2n3C)cc1 [Compound 16, (R)-N-(4-((4-methyl-3-oxo-3,4-dihydro-1H-furo [3,4-b]indol-1-yl)amino)phenyl)acetamide]",no AChE activity,–,95.82% and 95.82 ± 0.21%,antioxidant activity (in words) [2]: higher than that of the positive control
"Cc1cc(C(C)(C)C)c(O)c(C(C)(C)C)c1 [BHT, butylhydroxytoluene, reference compound]",–,–,92.38% and 92.38 ± 0.21%,–
"O=C(Cn1ccc2ccc(F)cc21)NC[C@@H]1CCCN2CCCC[C@H]12 [Compound 9, N-{[(1S,9aR)-octahydro-1H-quinolizin-1-yl]methyl}-2-(6-fluoro-1H-indol-1-yl)acetamide]",micro- to low millimolar range,1000 to 2000 µM and 1800 µM,6.43% and 6.43 ± 0.85%,–
O=C1O[C@H]([C@@H](O)CO)C(O)=C1O [ascorbic acid],–,–,–,IC50 scavenging activity in the ABTS model [4]: 105.90 µg/mL
O=C1C2CCCN2C(=O)c2ccccc2N1CCc1ccccc1 (centres unmarked) [Compound 17],–,> 10000 µM,–,–
O=c1cccc2n1C[C@@H]1CNC[C@H]2C1 [Cytisine],–,–,–,inhibition of AChE (in words) [5]: does not inhibit; inhibition of BChE (in words) [6]: does not inhibit

# From PMC9145144, “Virtual Screening and Hit Selection of Natural Compounds as Acetylcholinesterase Inhibitors” (Molecules, 2022)
